The record followed here is ChEMBL document CHEMBL2151022, “Combatting Drug-Resistant Bacteria with Gyrase and Topoisomerase IV Inhibitors: Patent Highlight” (ACS Med Chem Lett, 2012).

Usually Ki stands for a measure of affinity in units of concentration, obtained from inhibition or displacement. Low values mean a stronger hold on the target, high ones a looser hold on the target.

This test addresses DNA gyrase subunit B (Staphylococcus aureus, UniProt P0A0K8). Kind of test: Inhibition of Staphylococcus aureus DNA gyrase Gyr B subunit by ATPase assay.

Molecules are shown by their SMILES. A value given as a limit tells only on which side of the number the result lay.

Sequence of DNA gyrase subunit B (P0A0K8 whole entry): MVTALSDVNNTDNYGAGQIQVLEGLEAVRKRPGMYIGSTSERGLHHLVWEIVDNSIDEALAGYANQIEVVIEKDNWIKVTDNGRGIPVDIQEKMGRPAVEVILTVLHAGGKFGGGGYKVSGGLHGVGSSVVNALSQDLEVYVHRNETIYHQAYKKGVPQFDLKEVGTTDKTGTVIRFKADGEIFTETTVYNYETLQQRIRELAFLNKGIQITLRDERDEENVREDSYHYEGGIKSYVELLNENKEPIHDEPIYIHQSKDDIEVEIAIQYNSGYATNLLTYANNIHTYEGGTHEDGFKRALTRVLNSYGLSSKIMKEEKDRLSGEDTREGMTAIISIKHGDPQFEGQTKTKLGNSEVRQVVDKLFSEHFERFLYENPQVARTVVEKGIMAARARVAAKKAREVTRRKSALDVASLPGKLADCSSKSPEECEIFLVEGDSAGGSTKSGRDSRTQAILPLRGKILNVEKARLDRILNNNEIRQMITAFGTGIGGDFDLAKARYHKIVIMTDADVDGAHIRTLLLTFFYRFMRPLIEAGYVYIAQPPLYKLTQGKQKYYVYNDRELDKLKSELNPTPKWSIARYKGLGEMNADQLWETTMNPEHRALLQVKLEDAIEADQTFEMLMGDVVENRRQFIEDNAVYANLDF

Turning to `CCNC(=O)Nc1nc2cc(-c3cnc(C(C)(C)OP(=O)(O)O)nc3)c(F)c([C@H]3CCCO3)c2[nH]1`, the Ki was below 9 nM.
